Measurements published in EP4610269A1, “UROKINASE PLASMINOGEN ACTIVATOR SURFACE RECEPTOR (UPAR) LIGANDS FOR DIAGNOSTIC OR THERAPEUTIC USE” (3B Pharmaceuticals GmbH, priority 2024, dated 2025).
Where a SMILES comes first, the peptide text is derived from it. Bridges are numbered along the chain shown (N, C = ends). [ ]: non-standard residue; d: D form. The star is where a group is joined. X3 = NC(=O)[C@H](CCCCNC(=O)CN1CCN(CC(=O)O)CCN(CC(=O)O)CCN(CC(=O)O)CC1)NC(=O)CCC(=O)NCCCOCCOCCOCCCN*; DOTA = O=C(O)CN1CCN(CC(=O)O)CCN(CC(=O)*)CCN(CC(=O)O)CC1; Phe(4-guanidino) = N=C(N)Nc1ccc(C[C@H](N)C(=O)O)cc1; Pro(cis-4-F) = O=C(O)[C@@H]1C[C@H](F)CN1; 2Nal = N[C@@H](Cc1ccc2ccccc2c1)C(=O)O; Dopa = N[C@@H](Cc1ccc(O)c(O)c1)C(=O)O; Hyp = O=C(O)[C@@H]1C[C@@H](O)CN1; Pentanoyl(4-Me) = CC(C)CCC(=O)*; Cit = NC(=O)NCCC[C@H](N)C(=O)O; Butoxycarbonyl = CCCCOC(=O)*; NMeC = CN[C@@H](CS)C(=O)O; Nva = CCC[C@H](N)C(=O)O; Hexanoyl = CCCCCC(=O)*; Pentanoyl = CCCCC(=O)*

Columns and labels:
[1] = biological target: T1, human uPAR (uPAR-Fc) (Homo sapiens, UniProt Q03405); experiment: Surface plasmon resonance (SPR) assay, single cycle kinetics; format: binding; conditions: pKD category for uPAR SPR activity assay; uPAR-Fc on Protein A-Chip, 25°C; read-out: pKD CAT (converted)
T1 construct: comprising amino acids Leu23-Arg303 according to UniProt entry Q03405.1; purchased R&D Systems 10378-UK-100
T1 sequence (Q03405 23-303): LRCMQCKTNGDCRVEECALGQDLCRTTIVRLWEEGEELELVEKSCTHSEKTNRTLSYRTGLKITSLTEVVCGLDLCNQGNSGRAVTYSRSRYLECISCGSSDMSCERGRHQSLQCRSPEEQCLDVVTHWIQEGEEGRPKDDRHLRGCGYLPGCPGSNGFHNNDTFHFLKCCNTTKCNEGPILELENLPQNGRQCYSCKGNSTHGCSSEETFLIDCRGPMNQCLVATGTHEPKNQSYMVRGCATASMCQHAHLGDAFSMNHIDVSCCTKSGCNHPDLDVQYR
Protocol: Surface plasmon resonance (SPR) is an optical technique used to measure molecular interactions in real time. SPR occur when plane-polarized light hits a metal film under total internal reflection conditions. SPR signal is directly dependent on the refractive index of the medium on the sensor chip. In an SPR experiment, one molecule (i.e. uPAR) is immobilized on a sensor chip and binding to a second molecule (i.e. test compounds) is measured under flow. The binding of the compound on the surface changes the refractive index. In responses the reflection angle changes as compounds bind and dissociate on the immobilized protein on the surface. This response is measured in resonance units (RU). The RUs are proportional to the number of molecules bound to the surface. […] Kinetic binding constants and equilibrium binding constants can be derived from the sensorgrams.
Surface plasmon resonance (SPR) studies were performed using a Biacore™ T200 or S200 SPR system (Cytiva, formerly GE Life Sciences) to assess binding of compounds to recombinant uPAR protein.
In this example recombinant protein comprising the extracellular domains of human uPAR (uPAR-Fc, R&D Systems, CAT 10378-UK-100, comprising amino acids Leu23-Arg303 according to UniProt entry Q03405.1 and Fc region of human IgG1 at the C-terminus) was immobilized on a Protein A-Chip (Cytiva, CAT 29127555) according to the supplier's instructions. uPAR-Fc was diluted in Running Buffer (10 mM HEPES, 150 mM NaCl, 50 µM EDTA, 0.1% DMSO, 0.05% Tween-20, pH 7.4) to a final concentration of 100 nM and then flushed over the Protein A-Chip to immobilized ~2000 RUs.
Stock solutions of test compounds were prepared by dissolving each compound in DMSO. DMSO stock solution were diluted 1: 1000 in Running Buffer without DMSO. Further sequential dilutions were made with Running Buffer containing 0.1% DMSO. SPR binding analyses were performed in Single Cycle Kinetic (SCK) mode at 25°C. Flow cell without immobilized uPAR-Fc served as reference flow cell. The chip was regenerated with 10 mM Glycine, pH 1,5 to remove the uPAR-Fc from the chip surface after each SCK run. After every three SCK measurements, a blank run with Running Buffer instead of test compound was included to correct for baseline drifts (double reference substraction method). Table 11: SPR protocol steps for SCK with uPAR-Fc immobilized on a Protein A-Chip.
For each test compound, SPR raw data sensorgrams were recorded using the Biacore™ T200 or S200 control software. Sensorgrams were processed and analyzed with the Biacore™ Insight Evaluation software. […] The reference subtracted sensorgram for each test compound was further corrected for baseline drift by subtracting the sensorgram of a reference subtracted blank run (Running Buffer only). The dissociation constant (KD) was calculated from the double reference subtracted sensorgrams using the 1:1 Langmuir binding model. The pKD value (negative decadic logarithm of dissociation constant) was calculated using Microsoft Excel.

[2] = biological target: T2, uPAR-expressing HEC-265 human endometrial adenocarcinoma cells (Homo sapiens, UniProt Q03405); experiment: Competitive FACS binding assay; conditions: pIC50 category of FACS binding
T2 construct: Cell surface uPAR-expressing HEC-265 human endometrial adenocarcinoma cells; host or cells: HEC-265
T2 sequence (Q03405 23-335): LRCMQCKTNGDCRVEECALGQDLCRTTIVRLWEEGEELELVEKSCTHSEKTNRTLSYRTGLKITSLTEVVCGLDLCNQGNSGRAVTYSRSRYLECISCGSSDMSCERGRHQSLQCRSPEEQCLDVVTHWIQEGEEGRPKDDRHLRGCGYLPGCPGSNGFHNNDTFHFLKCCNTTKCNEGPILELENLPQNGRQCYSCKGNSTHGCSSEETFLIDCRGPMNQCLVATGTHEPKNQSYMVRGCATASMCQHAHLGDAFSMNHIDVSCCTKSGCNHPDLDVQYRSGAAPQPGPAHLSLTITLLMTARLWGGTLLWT
Protocol: In order to determine binding of compounds according to the present invention to uPAR-expressing cells, a competitive FACS binding assay was established.
Cell surface uPAR-expressing HEC-265 human endometrial adenocarcinoma cells (Japanese Collection of Research Bioresources, #JCRB1142) were cultured in MEM Eagle with stable glutamine (Pan Biotech, #P04-09500) including 15% fetal bovine serum (Pan Biotech, #P30-3306) and 100 U/ml penicillin and 100 µg/mL streptomycin (Pan Biotech, #P06-07100). Cells were detached with Cell Dissociation Buffer (Thermo Scientific, #13151014) and washed in FACS buffer (PBS (Pan Biotech, #P04-36500) including 1% BSA (SeraCare, #AP-4510-80). Cells were diluted in FACS buffer to a final concentration of 500.000 cells per ml and 200 µl of the cell suspension are transferred to a u-shaped non-binding 96-well plate (Greiner Bio-One, #650901).
For IC50 determination, cells were incubated with 10 nM Bio--Ttds--Ttds--Ttds--Ttds-D-Cha-FsrYLWS-NH2) in the presence of increasing concentrations of non-labeled test compounds at 4°C for 1 hour. Cells were washed twice in FACS buffer. An additional incubation step with 1 µg/mL APC-Streptavidin (Miltenyi; #130-106-791) in 50 µL FACS buffer for 30 minutes on ice was performed followed by two washes with FACS buffer. Cells were resuspended in 200 µl FACS buffer and analyzed in an Attune NxT flow cytometer. Median fluorescence intensities (APC channel) were calculated by Attune NxT software and plotted against peptide concentrations. Four parameter logistic (4PL) curve fitting and pIC50 calculations were performed using ActivityBase software.

| Kd [1] [nM] | IC50 [2] [nM] | Compound |
| --- | --- | --- |
| < 1.58 | ≤ 10 | CC[C@H](C)[C@@H]1NC(=O)[C@@H](C)NC(=O)[C@@H]2CCCN2C(=O)[C@H](Cc2ccccc2)NC(=O)[C@H](Cc2ccc(O)c(O)c2)NC(=O)[C@H](CCC(N)=O)NC(=O)[C@H](CCCNC(N)=O)NC(=O)[C@@H](NC(=O)CCC(C)C)CSSC[C@@H](C(N)=O)NC(=O)[C@H](CC(C)C)NC1=O [UPAR-144, iHex-[Cys-Cit-Gln-Dopa-Phe-Pro-ala-Ile-Leu-Cys]-NH2] ({Pentanoyl(4-Me)}-C[Cit]Q[Dopa]FP[dA]ILC-NH2; disulfide 1-10) |
| < 1.58 | ≤ 10 | CC[C@H](C)[C@@H]1NC(=O)[C@H](CCCCNC(=O)CN2CCN(CC(=O)O)CCN(CC(=O)O)CCN(CC(=O)O)CC2)NC(=O)[C@@H]2CCCN2C(=O)[C@H](Cc2ccccc2)NC(=O)[C@H](Cc2ccc(O)cc2)NC(=O)[C@H](CCC(N)=O)NC(=O)[C@H](CCCNC(N)=O)NC(=O)[C@@H](NC(=O)CCC(C)C)CSSC[C@@H](C(N)=O)NC(=O)[C@H](CC(C)C)NC1=O [UPAR-145, iHex-[Cys-Cit-Gln-Tyr-Phe-Pro-Lys(DOTA)-Ile-Leu-Cys]-NH2] ({Pentanoyl(4-Me)}-C[Cit]QYFPK(DOTA)ILC-NH2; disulfide 1-10) |
| 1.58 to 10 | 12.6 to 31.6 | CCCCC(=O)N[C@H]1CSSC[C@@H](C(=O)NCC)NC(=O)[C@H](CCC)NC(=O)[C@H]([C@@H](C)CC)NC(=O)[C@@H]2C[C@@H](O)CN2C(=O)[C@@H]2CCCN2C(=O)[C@H](Cc2ccccc2)NC(=O)[C@H](Cc2ccc(O)cc2)NC(=O)[C@H](CCC(N)=O)NC(=O)[C@H](CCCNC(N)=O)NC1=O [UPAR-146, Pent-[Cys-Cit-Gln-Tyr-Phe-Pro-Hyp-Ile-Nva-Cys]-NHEt] (Pentanoyl-C[Cit]QYFP[Hyp]I[Nva]C-NHEt; disulfide 1-10) |
| 10 to 100 | 12.6 to 31.6 | CC[C@H](C)[C@@H]1NC(=O)[C@@H](C)NC(=O)[C@@H]2CCCN2C(=O)[C@H](Cc2ccc3ccccc3c2)NC(=O)[C@H](Cc2ccc(O)cc2)NC(=O)[C@H](CCC(N)=O)NC(=O)[C@H](CCCNC(N)=O)NC(=O)[C@@H](NC(=O)CCC(C)C)CSSC[C@@H](C(N)=O)NC(=O)[C@H](CC(C)C)NC1=O [UPAR-147, iHex-[Cys-Cit-Gln-Tyr-2Ni-Pro-ala-Ile-Leu-Cys]-NH2] ({Pentanoyl(4-Me)}-C[Cit]QY[2Nal]P[dA]ILC-NH2; disulfide 1-10) |
| < 1.58 | ≤ 10 | CCCCC(=O)N[C@H]1CSSC[C@@H](C(N)=O)NC(=O)[C@H](CCC)NC(=O)[C@H]([C@@H](C)CC)NC(=O)[C@@H]2C[C@@H](O)CN2C(=O)[C@@H]2CCCN2C(=O)[C@H](Cc2ccccc2)NC(=O)[C@H](Cc2ccc(NC(=N)N)cc2)NC(=O)[C@H](CCCCNC(=O)CN2CCN(CC(=O)O)CCN(CC(=O)O)CCN(CC(=O)O)CC2)NC(=O)[C@H](CCCNC(N)=O)NC1=O [UPAR-149, Pent-[Cys-Cit-Lys(DOTA)-Guf-Phe-Pro-Hyp-Ile-Nva-Cys]-NH2] (Pentanoyl-C[Cit]K(DOTA)[Phe(4-guanidino)]FP[Hyp]I[Nva]C-NH2; disulfide 1-10) |
| 1.58 to 10 | 39.8 to 100 | CCCCCC(=O)N[C@@H](CC(=O)O)C(=O)N[C@@H](CC(C)C)C(=O)N[C@H]1CSSC[C@@H](C(=O)NCCCOCCOCCOCCCNC(=O)CCC(=O)N[C@@H](CCCCNC(=O)CN2CCN(CC(=O)O)CCN(CC(=O)O)CCN(CC(=O)O)CC2)C(N)=O)NC(=O)[C@H](CC(C)C)NC(=O)[C@H]([C@@H](C)CC)NC(=O)[C@H](C)NC(=O)[C@@H]2CCCN2C(=O)[C@H](Cc2ccccc2)NC(=O)[C@H](Cc2ccc(O)cc2)NC(=O)[C@H](CCSC)NC(=O)[C@H](CCCNC(=N)N)NC1=O [UPAR-150, Hex-Asp-Leu-[Cys-Arg-Met-Tyr-Phe-Pro-Ala-Ile-Leu-Cys]-Ttds-Lys(DOTA)-NH2] (Hexanoyl-DLCRMYFPAILC-X3; disulfide 3-12) |

More lines, now with the values behind:

| Compound | Kd [1] [nM] | IC50 [2] [nM] |
| --- | --- | --- |
| CCCCCC(=O)N[C@@H](CCCCNC(=O)CN1CCN(CC(=O)O)CCN(CC(=O)O)CCN(CC(=O)O)CC1)C(=O)N[C@@H](CC(C)C)C(=O)N[C@H]1CSSC[C@@H](C(N)=O)NC(=O)[C@H](CC(C)C)NC(=O)[C@H]([C@@H](C)CC)NC(=O)[C@H](C)NC(=O)[C@@H]2CCCN2C(=O)[C@H](Cc2ccccc2)NC(=O)[C@H](Cc2ccc(O)cc2)NC(=O)[C@H](CCSC)NC(=O)[C@H](CCCNC(=N)N)NC1=O [UPAR-140, Hex-Lys(DOTA)-Leu-[Cys-Arg-Met-Tyr-Phe-Pro-Ala-Ile-Leu-Cys]-NH2] (Hexanoyl-K(DOTA)LCRMYFPAILC-NH2; disulfide 3-12) | < 1.58 | ≤ 10 |
| CCCCOC(=O)N[C@H]1CSSC[C@@H](C(=O)N[C@@H](CC(=O)O)C(N)=O)NC(=O)[C@H](CCC)NC(=O)[C@H]([C@@H](C)CC)NC(=O)[C@@H]2C[C@@H](O)CN2C(=O)[C@@H]2C[C@H](F)CN2C(=O)[C@H](Cc2ccccc2)NC(=O)[C@H](Cc2ccc(O)cc2)NC(=O)[C@H](CCCCNC(=O)CN2CCN(CC(=O)O)CCN(CC(=O)O)CCN(CC(=O)O)CC2)NC(=O)[C@H]([C@@H](C)O)NC1=O [UPAR-141, Butoc-[Cys-Thr-Lys(DOTA)-Tyr-Phe-4Cfp-Hyp-Ile-Nva-Cys]-Asp-NH2] (Butoxycarbonyl-CTK(DOTA)YF[Pro(cis-4-F)][Hyp]I[Nva]CD-NH2; disulfide 1-10) | 10 to 100 | 39.8 to 100 |
| CCC[C@@H]1NC(=O)[C@H]([C@@H](C)CC)NC(=O)[C@@H]2C[C@@H](O)CN2C(=O)[C@@H]2CCCN2C(=O)[C@H](Cc2ccccc2)NC(=O)[C@H](Cc2ccc(O)cc2)NC(=O)[C@H](CCC(N)=O)NC(=O)[C@H](CCCNC(N)=O)NC(=O)[C@@H](N(C)C(=O)[C@H](CC(C)C)NC(=O)CN2CCN(CC(=O)O)CCN(CC(=O)O)CCN(CC(=O)O)CC2)CSSC[C@@H](C(N)=O)NC1=O [UPAR-142, DOTA-Leu-[Nmc-Cit-Gln-Tyr-Phe-Pro-Hyp-Ile-Nva-Cys]-NH2] ({DOTA}-L[NMeC][Cit]QYFP[Hyp]I[Nva]C-NH2; disulfide 2-11) | 10 to 100 | ≥ 126 |
| CCCCCC(=O)N[C@H](C(=O)N[C@@H](CC(C)C)C(=O)N[C@H]1CSSC[C@@H](C(N)=O)NC(=O)[C@H](CC(C)C)NC(=O)[C@H]([C@@H](C)CC)NC(=O)[C@H](C)NC(=O)[C@@H]2CCCN2C(=O)[C@H](Cc2ccccc2)NC(=O)[C@H](Cc2ccc(O)cc2)NC(=O)[C@H](Cc2ccc(O)cc2)NC(=O)[C@H](CCC(=O)O)NC1=O)[C@@H](C)O [UPAR-143, Hex-Thr-Leu-[Cys-Glu-Tyr-Tyr-Phe-Pro-Ala-Ile-Leu-Cys]-NH2] (Hexanoyl-TLCEYYFPAILC-NH2; disulfide 3-12) | < 1.58 | ≤ 10 |
